Assay results taken from US20240350456A1, “COMPOSITIONS AND METHODS FOR DIAGNOSING AND TREATING INFLAMMATORY CONDITIONS” (RUTGERS, THE STATE UNIVERSITY OF NEW JERSEY, priority 2023, published 2024).

Legend:
ZO-1 (Tjp1) and Ocln = test: Intestinal organoids treated with LPS and metabolites: tight junction (TJ) expression, RT-qPCR and immunostaining; format: cell-based, mouse; settings: for gene expression of Ocln: ex vivo, in the presence of the barrier disruptor; for TJ expression at the protein and mRNA levels: in the presence of LPS (1 μg/mL), 48 hr
Protocol: Intestinal organoids were isolated as previously described (Das et al., 2015; Pearce et al., 2018). Briefly, crypts were isolated from small intestine of conventional house C57BL/6 male mice (Taconic Laboratories, Hudson, NY) by shaking in isolation buffer (2 mM EDTA in PBS), then, crypts were harvested, processed, and suspended in crypt culture medium (CCM), which consisted of advanced DMEM/F12 (Life Technologies, Carlsbad, CA) supplemented with serum-free B27 (1:50; Life Technologies), N2 (1:100; Life Technologies), N-acetylcysteine (1 mM; Sigma-Aldrich, St. Louis, MO), recombinant murine epithelial growth factor (EGF, 50 ng/ml; Peprotech, Rocky Hill, NJ), Noggin (100 ng/ml; Peprotech), R-Spondin (500 ng/ml; Peprotech), Glutamax-I supplement (1:100; Life Technologies), penicillin/streptomycin (500 μg/ml; Life Technologies), and HEPES ([…]; Life Technologies). Crypts were resuspended in 70% Matrigel (density ˜450 crypts per dome, 2 domes per well in 24-well plate) and allowed to solidify at 37° C. for 20 min. CCM (1.5 mL) was then added to each well. Cultures were incubated in a humidified incubator at 37° C., and CCM was changed daily. Intestinal organoid treatment with LPS and metabolites
(§1) We had 2 series of metabolite-treated organoid experiments, i.e., 1) organoid from conventional C57BL6 mice and 2) Ocln KO and littermate WT control as a gift from Prof. Jerrold Turner (Harvard University). […] Seeding is designated as day 0. On day 3 of culture, the existing media in the wells were completely removed before adding treatments. LPS (1 μg/mL) with or without metabolites, i.e., IPA (0.1 mM) (Li et al., 2021), IAM (200 μM) (Vyhlidalova et al., 2020), MNA (12 ng/ml) (Liu et al., 2015), CARN (20 mM) (Boldyrev et al., 2013) or ASA (1 μM) (Erez et al., 2011) were each added in CCM at known physiological concentrations, incubated for 48 hours, thereafter, organoid was harvested for RNA extraction, and paraformaldehyde fixation for immunostaining.
(§2) Total RNA was extracted from the intestinal organoids using a commercially available kit (RNeasy Microkit; Qiagen, MD, Cat. #74004) following manufacturer's instructions. mRNA samples were converted to cDNA using Bio-Rad's iScript Reverse Transcription Supermix for RT-qPCR (Bio-Rad Laboratories, Hercules, CA, Cat. #1708840). cDNA was then used for RT-qPCR (Mx3000P. Stratagene, La Jolla, CA) to analyze several genes using Maxima SYBR Green qPCR Master Mix (Thermo Fisher Scientific, Waltham, MA) and primers (Integrated DNA Technologies, Coralville, IA). Thermal profile for three-step cycling was 10 min at 95° C. for initial denaturation; then 40 cycles of 15 sec at 95° C. for denaturation, 30 sec at 65° C. for annealing, and 30 sec at 75° C. for extension. Primers used are as follows: β-actin (Actb), forward 5′-[…]-3′ (SEQ ID NO: 5), reverse 5′-[…]-3′ (SEQ ID NO: 6); ZO-1 (Tjp1), forward 5′-[…]-3′ (SEQ ID NO: 7), reverse 5′-[…]-3′ (SEQ ID NO: 8), Ocln, forward 5′-[…]-3′ (SEQ ID NO: 9), reverse 5′-[…]-3′ (SEQ ID NO: 10); Lyz1, forward 5′-ATGGCTACCGTGGTGTCAAG-3′ (SEQ ID NO: 11), reverse 5′-CGGTCTCCACGGTTGTAGTT-3′ (SEQ ID NO: 12); Tff3, forward 5′-TAATGCTGTTGGTGGTCCTG-3′ (SEQ ID NO: 13), reverse 5′-CAGCCACGGTTGTTACACTG-3′ (SEQ ID NO: 14). All samples were normalized to β actin expression. Gene expression levels are depicted as fold change relative to the control group.
(§3) Immunocytochemistry followed earlier work (Pearce et al., 2018). Briefly, organoids were extracted from Matrigel by using cell recovery solution (Corning, Cat. No. 354253), processed then fixed in 4% paraformaldehyde for 15 min and dehydrated with 70% ethanol and kept in 4° C. until embedded in paraffin. On the day of embedding, organoids were gently spun down to a pellet (250 g for 5 min), then the supernatant was removed, the pellet resuspended in agarose and embedded in paraffin. […]

[1] = test system: Tff3 and Lyz1 (goblet and Paneth cells); test: Organoids: goblet and Paneth cell transcripts (Tff3, Lyz1) and cell numbers; format: cell-based, mouse; settings: enteroids
Protocol: as §1, §2, §3

SMILES: NC(=O)Cc1c[nH]c2ccccc12 [Indole-3-acetamide, indole-3-acetamide]
- gene expression of Ocln (ZO-1 (Tjp1) and Ocln): increased gene expression of Ocln
- TJ expression at the protein and mRNA levels (ZO-1 (Tjp1) and Ocln): increased TJ expression
- goblet and Paneth cell transcripts and cell numbers [1]: reduced goblet and Paneth cell transcripts as well as cell numbers

SMILES: C[n+]1cccc(C(N)=O)c1 [Methylnicotinamide, 1-methynicotinamide]
- gene expression of Ocln (ZO-1 (Tjp1) and Ocln): increased gene expression of Ocln
- TJ expression at the protein and mRNA levels (ZO-1 (Tjp1) and Ocln): increased TJ expression
- goblet and Paneth cell transcripts and cell numbers [1]: reduced goblet and Paneth cell transcripts as well as cell numbers
